According to ChEMBL document CHEMBL3431459, “Roche carnitine palmitoyltransferase modulator screening data (supplementary data associated with the publication CHEMBL2216752)”:
pIC50: −log10 of the molar value. ≈ marks a conversion by molar mass, not a printed value.

Legend:
[1] = biological target: T1, Carnitine O-palmitoyltransferase 2, mitochondrial (Rattus norvegicus, UniProt P18886); assay: (§1) SUPPLEMENTARY: Inhibition of Carnitine palmitoyltransferase 2
T1 sequence (P18886 whole entry): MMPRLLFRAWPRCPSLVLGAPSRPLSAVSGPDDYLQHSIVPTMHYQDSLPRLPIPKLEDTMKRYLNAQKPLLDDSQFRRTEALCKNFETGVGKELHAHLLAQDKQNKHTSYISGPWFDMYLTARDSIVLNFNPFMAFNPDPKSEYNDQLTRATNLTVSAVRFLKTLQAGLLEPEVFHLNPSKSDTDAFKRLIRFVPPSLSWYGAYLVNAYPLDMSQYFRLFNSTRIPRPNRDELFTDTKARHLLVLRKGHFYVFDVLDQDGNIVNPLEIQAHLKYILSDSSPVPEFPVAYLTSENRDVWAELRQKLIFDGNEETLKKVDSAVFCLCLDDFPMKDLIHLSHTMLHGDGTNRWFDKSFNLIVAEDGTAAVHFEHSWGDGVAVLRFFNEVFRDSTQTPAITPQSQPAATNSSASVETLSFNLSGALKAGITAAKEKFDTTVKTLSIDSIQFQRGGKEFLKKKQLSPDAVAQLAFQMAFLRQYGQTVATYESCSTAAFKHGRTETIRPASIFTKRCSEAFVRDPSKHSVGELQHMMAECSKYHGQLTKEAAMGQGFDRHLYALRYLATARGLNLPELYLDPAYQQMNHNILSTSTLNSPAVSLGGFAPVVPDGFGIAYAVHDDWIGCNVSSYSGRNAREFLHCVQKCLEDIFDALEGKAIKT

[2] = biological target: T2, Carnitine O-palmitoyltransferase 2, mitochondrial (Homo sapiens, UniProt P23786); assay: as §1
T2 sequence (P23786 whole entry): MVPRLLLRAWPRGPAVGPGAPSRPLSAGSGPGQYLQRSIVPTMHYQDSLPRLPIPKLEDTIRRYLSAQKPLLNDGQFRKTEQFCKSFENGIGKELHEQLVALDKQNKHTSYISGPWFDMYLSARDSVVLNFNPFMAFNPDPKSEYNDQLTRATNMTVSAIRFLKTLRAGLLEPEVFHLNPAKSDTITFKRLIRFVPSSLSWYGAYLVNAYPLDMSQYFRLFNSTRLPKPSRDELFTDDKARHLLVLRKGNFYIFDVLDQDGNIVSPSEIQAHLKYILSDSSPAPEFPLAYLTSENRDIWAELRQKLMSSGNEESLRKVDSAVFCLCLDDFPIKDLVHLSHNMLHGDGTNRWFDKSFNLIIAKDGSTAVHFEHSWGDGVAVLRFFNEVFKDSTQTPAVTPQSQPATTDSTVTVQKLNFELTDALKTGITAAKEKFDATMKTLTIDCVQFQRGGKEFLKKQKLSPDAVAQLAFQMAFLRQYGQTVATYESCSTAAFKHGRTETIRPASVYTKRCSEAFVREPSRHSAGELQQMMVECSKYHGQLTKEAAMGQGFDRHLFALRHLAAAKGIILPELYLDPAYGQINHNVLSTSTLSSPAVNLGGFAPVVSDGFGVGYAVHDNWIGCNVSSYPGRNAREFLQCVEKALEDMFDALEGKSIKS

[3] = SUPPLEMENTARY: Lipophilicity (log D) Determination by high-throughput shake-flask; assay type: physicochemical; settings: octanol/water
[4] = biological target: T3, Carnitine O-palmitoyltransferase 1, muscle isoform (Homo sapiens, UniProt Q92523); assay: SUPPLEMENTARY: Inhibition of Carnitine palmitoyltransferase 1, muscle isoform; design: species or system Muscle tissue
T3 sequence (Q92523 whole entry): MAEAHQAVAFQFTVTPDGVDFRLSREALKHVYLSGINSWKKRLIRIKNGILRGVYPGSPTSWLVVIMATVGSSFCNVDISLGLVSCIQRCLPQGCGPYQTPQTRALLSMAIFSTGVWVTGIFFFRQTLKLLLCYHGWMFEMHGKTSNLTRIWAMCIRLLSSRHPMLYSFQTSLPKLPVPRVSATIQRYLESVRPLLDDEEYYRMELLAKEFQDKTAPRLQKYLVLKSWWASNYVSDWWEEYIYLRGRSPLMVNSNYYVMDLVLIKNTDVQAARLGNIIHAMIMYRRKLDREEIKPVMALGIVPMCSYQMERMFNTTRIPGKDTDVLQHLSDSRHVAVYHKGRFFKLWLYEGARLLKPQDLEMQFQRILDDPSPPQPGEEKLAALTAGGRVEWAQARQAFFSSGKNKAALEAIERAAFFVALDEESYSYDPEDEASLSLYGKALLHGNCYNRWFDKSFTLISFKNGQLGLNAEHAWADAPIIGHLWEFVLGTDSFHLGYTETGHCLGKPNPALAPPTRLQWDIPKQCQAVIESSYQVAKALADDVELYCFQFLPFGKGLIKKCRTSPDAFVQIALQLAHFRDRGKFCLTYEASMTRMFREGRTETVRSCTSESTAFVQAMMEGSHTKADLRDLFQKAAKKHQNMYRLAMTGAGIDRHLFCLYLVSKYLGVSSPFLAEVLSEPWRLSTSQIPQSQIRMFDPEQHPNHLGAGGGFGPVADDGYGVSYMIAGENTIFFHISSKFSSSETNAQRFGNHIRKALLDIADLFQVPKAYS

[5] = biological target: T4, Carnitine O-palmitoyltransferase 1, liver isoform (Rattus norvegicus, UniProt P32198); assay: (§2) SUPPLEMENTARY: Inhibition of Carnitine palmitoyltransferase 1, liver isoform
T4 sequence (P32198 whole entry): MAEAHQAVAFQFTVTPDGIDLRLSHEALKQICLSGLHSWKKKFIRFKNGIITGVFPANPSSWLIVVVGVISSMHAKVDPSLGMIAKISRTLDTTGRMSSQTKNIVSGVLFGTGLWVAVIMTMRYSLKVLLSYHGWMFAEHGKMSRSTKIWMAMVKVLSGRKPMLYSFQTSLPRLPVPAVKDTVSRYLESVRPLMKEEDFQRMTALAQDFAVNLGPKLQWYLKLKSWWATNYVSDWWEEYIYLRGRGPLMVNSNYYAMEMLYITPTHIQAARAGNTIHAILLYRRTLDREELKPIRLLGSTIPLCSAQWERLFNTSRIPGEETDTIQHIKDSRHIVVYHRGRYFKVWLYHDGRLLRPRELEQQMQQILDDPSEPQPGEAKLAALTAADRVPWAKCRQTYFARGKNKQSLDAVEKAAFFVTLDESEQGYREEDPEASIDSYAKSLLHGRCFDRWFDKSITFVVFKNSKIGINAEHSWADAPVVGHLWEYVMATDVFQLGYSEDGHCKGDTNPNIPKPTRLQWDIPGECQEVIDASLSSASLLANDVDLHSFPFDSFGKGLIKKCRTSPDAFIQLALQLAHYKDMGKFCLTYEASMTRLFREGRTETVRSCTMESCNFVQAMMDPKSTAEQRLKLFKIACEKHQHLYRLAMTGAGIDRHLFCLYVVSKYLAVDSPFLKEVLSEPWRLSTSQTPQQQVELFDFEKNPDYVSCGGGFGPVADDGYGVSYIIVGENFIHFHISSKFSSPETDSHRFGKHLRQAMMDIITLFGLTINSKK

[6] = biological target: T5, Carnitine O-palmitoyltransferase 1, liver isoform (Homo sapiens, UniProt P50416); assay: as §2
T5 sequence (P50416 whole entry): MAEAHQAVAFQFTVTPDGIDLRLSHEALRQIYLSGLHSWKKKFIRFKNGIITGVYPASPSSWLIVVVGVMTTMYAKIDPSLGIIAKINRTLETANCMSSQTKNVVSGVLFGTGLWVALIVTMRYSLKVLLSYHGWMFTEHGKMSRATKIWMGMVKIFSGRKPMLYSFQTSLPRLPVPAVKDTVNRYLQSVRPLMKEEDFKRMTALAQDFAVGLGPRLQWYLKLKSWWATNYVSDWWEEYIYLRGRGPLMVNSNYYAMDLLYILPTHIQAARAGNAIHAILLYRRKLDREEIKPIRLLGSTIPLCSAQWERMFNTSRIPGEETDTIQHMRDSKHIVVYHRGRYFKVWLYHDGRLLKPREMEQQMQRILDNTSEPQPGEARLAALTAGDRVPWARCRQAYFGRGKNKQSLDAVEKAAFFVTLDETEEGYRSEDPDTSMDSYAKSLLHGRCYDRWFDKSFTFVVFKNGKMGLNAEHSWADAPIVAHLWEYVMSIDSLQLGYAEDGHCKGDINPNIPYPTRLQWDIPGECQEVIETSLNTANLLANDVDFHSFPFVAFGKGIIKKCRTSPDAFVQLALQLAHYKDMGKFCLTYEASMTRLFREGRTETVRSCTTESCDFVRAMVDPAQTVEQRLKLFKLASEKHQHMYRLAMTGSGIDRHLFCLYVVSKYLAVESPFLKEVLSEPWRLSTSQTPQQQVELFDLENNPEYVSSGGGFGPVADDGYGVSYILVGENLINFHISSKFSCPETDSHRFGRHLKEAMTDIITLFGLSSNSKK

[7] = SUPPLEMENTARY: Lyophilisation Solubility Assay (LYSA); assay type: physicochemical; settings: read-out: Kinetic_solubility
[8] = SUPPLEMENTARY: PAMPA permeability assay; assay type: physicochemical; settings: read-out: Permeability

Row | pIC50 [1] | pIC50 [2] | logD [3] | pIC50 [4] | pIC50 [5] | pIC50 [6] | solubility kinetic [7] [µg/mL] | Papp [8] [×10⁻⁶ cm/s] | SMILES
1 | < 4.00 | < 4.00 | 0.31 | 4.41 | 7.61 | 7.42 | 374 (≈ 748 µM) | – | COc1ccc(Cl)cc1S(=O)(=O)c1nn(CC(=O)O)c2ccc(C(=O)Nc3ccccc3)cc12
2 | 4.48 | 4.78 | 3.15 | 4.15 | 6.67 | – | 37 (≈ 97.5 µM) | 3.8 | O=C(COc1ccccc1)N1CCCC[C@@H]1c1nc(-c2cccnc2)cs1
3 | < 4.00 | < 4.00 | -0.02 | 6.69 | 7.72 | 7.41 | 66 (≈ 130 µM) | – | COc1ccc(Cl)cc1S(=O)(=O)c1c[nH]c2ccc(C(=O)Nc3nc(CC(=O)O)cs3)cc12
4 | < 4.00 | < 4.00 | 0.17 | 6.63 | 7.63 | 7.66 | 41 (≈ 82.2 µM) | – | COc1ccc(Cl)cc1S(=O)(=O)c1c[nH]c2ccc(C(=O)Nc3ccc(CC(=O)O)cc3)cc12
5 | < 4.00 | < 4.00 | 0.35 | 6.17 | 7.84 | 7.73 | 25 (≈ 51.6 µM) | – | COc1ccc(Cl)cc1S(=O)(=O)Nc1cccc(C(=O)Nc2ccc(-c3nnn[nH]3)cc2)c1
6 | 4.65 | 4.94 | 2.84 | 5.39 | 7.16 | 6.99 | 11 (≈ 21.6 µM) | – | O=C(Nc1ccc(C(=O)O)c(F)c1)c1ccc2c(c1)N(S(=O)(=O)c1ccc(Cl)c(Cl)c1)CC2
7 | < 4.00 | < 4.00 | -0.23 | 4.95 | 8.14 | 7.44 | > 557 | – | COc1ccc(Cl)cc1S(=O)(=O)c1cn(CC(=O)O)c2ccc(C(=O)Nc3ccccc3)cc12
8 | < 4.00 | < 4.00 | -0.86 | 6.59 | 6.65 | 6.66 | 456 (≈ 831 µM) | – | COc1ccc(Cl)cc1S(=O)(=O)N1CC[S+]([O-])c2ccc(C(=O)Nc3ccc(CC(=O)O)cc3)cc21 (configuration not stated)
9 | < 4.00 | < 4.00 | > 3 | < 4.00 | 7.60 | 6.73 | < 1 | – | COc1ccc(Cl)cc1S(=O)(=O)c1cn(CSC)c2ccc(C(=O)Nc3ccccc3)cc12
10 | 5.29 | 5.71 | 0.84 | 6.28 | 7.69 | 7.76 | 23 (≈ 47.4 µM) | – | COc1ccc(Cl)cc1S(=O)(=O)c1c[nH]c2ccc(C(=O)Nc3ccc(C(=O)O)cc3)cc12
11 | < 4.00 | < 4.00 | > 4 | < 4.00 | 6.12 | – | < 1 | – | COc1ccc(Cl)cc1-c1csc([C@H]2CCCCN2C(=O)COc2ccccc2)n1
12 | 4.25 | 5.21 | > 3 | 4.11 | 6.89 | – | < 1 | – | O=C(COc1ccccc1)N1CCCC[C@@H]1c1csc(-c2n[nH]c3ccccc23)n1
13 | < 4.00 | < 4.00 | > 3 | < 4.00 | 7.53 | 7.07 | < 1 | – | COc1ccc(Cl)cc1S(=O)(=O)c1nn(C)c2ccc(C(=O)Nc3ccccc3)cc12
14 | < 4.00 | < 4.00 | > 3 | < 4.00 | 7.21 | 6.95 | < 1 | – | COc1ccc(Cl)cc1S(=O)(=O)c1cn(CS(C)(=O)=O)c2ccc(C(=O)Nc3ccccc3)cc12
15 | < 4.00 | < 4.00 | 1.79 | 6.84 | – | 6.26 | – | 0.77 | COc1ccc(Cl)cc1S(=O)(=O)N1CCCc2ccc(Oc3ccc(CC(=O)O)cc3)cc21
16 | – | – | 3.37 | < 4.00 | 6.89 | – | 24 (≈ 63.2 µM) | 9.04 | O=C(COc1ccccc1)N1CCCC[C@@H]1c1nc(-c2ccccn2)cs1
